Measurements taken from ChEMBL document CHEMBL3091282, “Synthesis and evaluation of stability of m3G-CAP analogues in serum-supplemented medium and cytosolic extract” (Bioorg Med Chem, 2013).

Columns and labels:
[1] = Half life in human HeLa cell cytosolic extract by RP-HPLC analysis; assay type: ADME, cell-based, Cytosol
[2] = Half life in DMEM by RP-HPLC analysis in presence of fetal bovine serum; assay type: ADME; details: cattle, DMEM with fetal bovine serum
[3] = Stability of the compound in DMEM assessed as compound remaining after 40 mins by RP-HPLC analysis in presence of fetal bovine serum; assay type: physicochemical; details: cattle, DMEM with fetal bovine serum; read-out: Stability

SMILES | half-life [1] | half-life [2] | remaining at 40 min [3]
CO[C@@H]1[C@H](O)[C@@H](COP(=O)([O-])OP(=O)(O)CP(=O)(O)OC[C@H]2O[C@@H](n3c[n+](C)c4c(=O)[nH]c(N(C)C)nc43)[C@H](O)[C@@H]2O)O[C@H]1n1cnc2c(N)ncnc21 | 10 h | 0.367 h | 35%
CO[C@@H]1[C@H](O)[C@@H](COP(=O)(O)OP(=O)([O-])OP(=O)(O)OC[C@H]2O[C@@H](n3c[n+](C)c4c(=O)[nH]c(N(C)C)nc43)[C@H](O)[C@@H]2O)O[C@H]1n1cnc2c(N)ncnc21 | 10 h | 0.217 h | 15%
CO[C@@H]1[C@H](O)[C@@H](COP(=O)(O)CP(=O)(O)OP(=O)([O-])OC[C@H]2O[C@@H](n3c[n+](C)c4c(=O)[nH]c(N(C)C)nc43)[C@H](O)[C@@H]2O)O[C@H]1n1cnc2c(N)ncnc21 | 120 h | 0.583 h | 52%
